# Data from patent US20240182456A1, “2-((4-((S)-2-(4-CHLORO-2-FLUOROPHENYL)-2-METHYLBENZO[D][1,3]DIOXOL-4-YL)PIPERIDIN-1-YL)METHYL)-1-(((S)-OXETAN-2-YL)METHYL)-1H-IMIDAZOLE DERIVATIVES AS ACTIVATORS OF THE GLP1 RECEPTOR FOR THE TREATMENT OF OBESITY” (Novartis AG, priority 2021, published 2024).
# Columns and labels:
# human GLP1R = human GLP1R (Homo sapiens, UniProt P43220); assay: Human GLP1R DERET internalization assay; assay type: cell-based; details: HEK293-SNAP-hGLP1R-GloSensor cells; for EC50: mean n=2; for Emax: relative to GLP1(7-36)
# Sequence of human GLP1R (P43220 24-463): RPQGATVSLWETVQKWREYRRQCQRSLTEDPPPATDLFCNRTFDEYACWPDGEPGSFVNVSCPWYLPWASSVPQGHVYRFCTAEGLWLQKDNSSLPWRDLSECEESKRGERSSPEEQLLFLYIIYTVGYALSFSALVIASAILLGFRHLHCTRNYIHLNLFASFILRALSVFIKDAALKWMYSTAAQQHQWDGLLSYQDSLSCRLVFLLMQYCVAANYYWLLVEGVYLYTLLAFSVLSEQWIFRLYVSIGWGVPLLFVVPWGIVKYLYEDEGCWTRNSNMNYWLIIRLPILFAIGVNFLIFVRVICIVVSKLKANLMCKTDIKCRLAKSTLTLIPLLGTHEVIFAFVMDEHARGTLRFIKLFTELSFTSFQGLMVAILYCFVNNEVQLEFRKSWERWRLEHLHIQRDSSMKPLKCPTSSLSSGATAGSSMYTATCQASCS
# Procedure: (§1) Compounds 1 to 31 were tested in the following cellular assays that measure the intracellular cAMP concentration, beta-arrestin recruitment and receptor internalization. The cAMP is generated by the activation of GLP1R. The cAMP data obtained is shown in Table 1 (where S.E.M. is included, mean n=3 independent experiments+/−S.E.M). Beta-arrestin is recruited upon activation of GLP1R and the data obtained are shown in Table 2 (mean n=2 independent experiments, +/−S.D). The extent to which the GLP1R is internalized into the cell and away from the plasma membrane following activation is also shown in Table 2 (mean n=2 independent experiments, +/−S.D). EC50 for each assay is defined as the concentration of the compound that leads to half of the maximum response (after baseline correction). Emax is defined as the maximum response observed for the test compound, normalized to the maximum response observed for the endogenous ligand (GLP1(7-36)) to GLP1R.
# The extent to which agonists internalize the human GLP1R was determined based on an optimized version of a RealTime FRET-based ‘DERET’ (Dissociation Enhanced Resonance Energy Transfer) assay. The technology relies on labeling of the SNAP-tagged GPCR with a SNAP-Lumi-Terbium (donor fluorophore, Cisbio, cat #SSNPTBD). The compounds are incubated with the cells over-expressing the GPCR of interest in the presence of an excess of fluorescein (acceptor fluorophore). When the GPCR is on the cell surface, the donor signal is quenched by the acceptor and the donor/acceptor ratio is low. As the GPCR internalizes, the donor signal is no longer quenched, and the acceptor is no longer excited so the donor/acceptor ratio increases.
# HEK293-SNAP-hGLP1R-GloSensor cells (stably overexpressing SNAP-tagged hGLP1R) were seeded overnight in white 384-well poly-D-Lysine coated plates (Greiner Bio One, cat #781945) in regular DMEM growth medium (Gibco, cat #11965-092, 10% heat-inactivated FBS, 10 mM HEPES, 1× penicillin/streptomycin, 0.5 mg/mL geneticin (Gibco, cat #10131-035) and 0.25 mg/mL hygromycin B (Invitrogen, cat #10687010). On the assay day, cell medium was removed and 100 nM SNAP-Lumi-Tb reagent was added in Opti-MEM solution. The cells were incubated at 37° C. for 1 h. Cells were washed using a plate washer in assay buffer [1×HBSS (10× Gibco, cat #14065-056), 20 mM Hepes (Gibco, cat #15630-080), 1 mM CaCl2 (Fluka, cat #21114-1L), 1 mM MgCl2 (Ambion, cat #AM9530G) pH7.4], and 20 μL buffer with 0.1% BSA was added to each well. After leaving cells to equilibrate for ˜15 min at 37° C., 10 μL of Fluorescein (sodium salt, Sigma, cat #F6377, diluted in buffer) was added at 25 μM final concentration. To generate triplicate dose response curves, compounds were serially diluted 3-fold in assay buffer, then added to the cell assay plate to a final volume of 40 μL and final top concentrations starting at 30 μM. In the same plate and assay buffer as the tested compounds, a GLP1 (7-36) peptide (Bachem, cat #H-6795) control curve was included at a final top concentration of 1 μM in order to establish EC100. EC0 wells with buffer only were also included. The plate FRET fluorescence was measured immediately using a Perkin Elmer Envision with LANCE/DELFIA D400 single mirror, excitation filter X320, and emission filters M615_203 (donor emission) and M515 (acceptor emission), and then measured every 30 min. […] Plates were kept at 37° C. between reads. Data was expressed as the ratio of donor/acceptor emissions using Microsoft Excel and plotted in GraphPad Prism. In order to determine EC50 and Emax for internalization, data was calculated and expressed as percent of the GLP1 (7-36) EC100 control wells: [(sample signal−mean EC0 signal)/(mean EC100 of GLP1 (7-36) signal−mean EC0 signal)]*100 using Microsoft Excel. Curve fitting for EC50 determinations was performed using GraphPad Prism. The 4-parameter logistic model, Hill slope was used:
# Y=Bottom+(Top−Bottom)/(1+10^((Log EC50−X)*Hill Slope)), […]
# human GLP1R (hGLP1R) = human GLP1R (hGLP1R) (Homo sapiens, UniProt P43220); assay: Human GLP1R cAMP agonist assay (GloSensor); assay type: cell-based; details: HEK293-SNAP-hGLP1R-GloSensor cells; for Emax: cAMP, normalized to GLP1(7-36) maximum response, read-out: Emax mean; for EC50: intracellular cAMP, mean n=3 where SEM is given
# Sequence of human GLP1R (hGLP1R) (P43220 24-463): as above
# Procedure: as §1
# Human GLP1R cAMP Agonist Assay
# The agonist activity of compounds was determined using the GloSensor™ cAMP Assay (Promega Corp.), which measures changes in the intracellular concentration of cAMP after ligand activation of GPCRs. The assay uses a biosensor encoded by pGloSensor™-22F cAMP plasmid (Promega, cat #E2301) with cAMP binding domains fused to a mutant form of Photinus pyralis luciferase. Binding to cAMP causes conformational changes that promote large increases in light output, which can be measured by a luminescence detector. HEK293-SNAP-hGLP1R-GloSensor cells stably overexpressing the human GLP1 receptor (hGLP1R) and pGloSensor™-22F were seeded in white 384-well poly-D-Lysine coated plates (Greiner Bio One, cat #781945) in CO2-independent media (Gibco cat #18045-088 with 1.0% FBS, 2 mM L-glutamine, penicillin and streptomycin) and incubated overnight at 37° C., 5% CO2 with humidity. The assay was started the following morning by adding an equal volume of CO2-independent media containing 4% v/v dilution of the GloSensor substrate (Promega, cat #E1291) to all wells. The cell plate was incubated at rt for 2 h in the dark. The Biomek 7 (Beckman Coulter) instrument was used for the liquid handling steps. To generate duplicate dose response curves, 3-fold serially diluted compounds were added in to the cell assay plate to a final volume of 60 μL with final concentrations ranging from 30 μM through 0.06 μM in CO2-independent media containing 0.1% BSA, 0.5 mM IBMX and 0.4% DMSO. In the same plate and assay buffer as the tested compounds, were EC100 control wells containing GLP1 (7-36) peptide (Bachem, cat #H-6795) at a final concentration of 2 nM and also EC0 control wells containing no peptide. This plate was incubated at rt in the dark for 12 min after adding the compounds to the cells. Luminescence was then measured with an Envision 2104 Multilabel reader with “TRF Light Unit, 337 nm” (PerkinElmer) using the Ultra-Sensitive protocol setting “384-well US luminescence detector” with the 384-well luminescence aperture, 0.1 seconds per well. cAMP activity was calculated as percent of the GLP1 (7-36) EC100 control wells: [(sample signal−mean EC0 signal)/(mean EC100 of GLP1 (7-36) signal−mean EC0 signal)}*100. Curve fitting for EC50 determinations was performed in the Helios module of the software package DAVID. The 4-parameter logistic model, Hill slope was used: y=Ainf+(A0−Ainf)/(1+(x/AC50)^Hill Slope) where y is the functional response; x is the compound concentration; A0 is the minimum value (at 0 dose); Ainf is the maximum value (at infinite dose); AC50 corresponds to the point of inflection (i.e. the point on the sigmoid shaped curve halfway between A0 and Ainf). The EC50 value was represented by the AC50 value calculated from Helios in μM. Emax is the maximal activity detected within the concentration range, derived from the fitted curve. […]
Structure (SMILES),EC50 (human GLP1R) [nM],Emax (human GLP1R) [%],Emax (human GLP1R (hGLP1R)) [%],EC50 (human GLP1R (hGLP1R)) [nM]
"Cc1c(/C=C/C(=O)O)nc(CN2CCC(c3cccc4c3O[C@@](C)(c3ccc(Cl)cc3F)O4)CC2)n1C[C@@H]1CCO1 [Compound C-6, (E)-3-(2-((4-((S)-2-(4-chloro-2-fluorophenyl)-2-methylbenzo[d][1,3]dioxol-4-yl)piperidin-1-yl)methyl)-5-methyl-1-(((S)-oxetan-2-yl)methyl)-1H-imidazol-4-yl)acrylic acid]",> 30000,5,105,6.72
"C[C@]1(c2ccc(Cl)cc2F)Oc2cccc(C3CCN(Cc4nc(C(F)(F)F)c(/C=C/C(=O)O)n4C[C@@H]4CCO4)CC3)c2O1 [Compound C-8, (E)-3-(2-((4-((S)-2-(4-chloro-2-fluorophenyl)-2-methylbenzo[d][1,3]dioxol-4-yl)piperidin-1-yl)methyl)-1-(((S)-oxetan-2-yl)methyl)-4-(trifluoromethyl)-1H-imidazol-5-yl)acrylic acid]",> 30000,9.5,108,0.0606
"Cc1c(-c2cccc(C(=O)O)c2)nc(CN2CCC(c3cccc4c3O[C@@](C)(c3ccc(Cl)cc3F)O4)CC2)n1C[C@@H]1CCO1 [Compound C-10, 3-(2-((4-((S)-2-(4-chloro-2-fluorophenyl)-2-methylbenzo[d][1,3]dioxol-4-yl)piperidin-1-yl)methyl)-5-methyl-1-(((S)-oxetan-2-yl)methyl)-1H-imidazol-4-yl)benzoic acid]",> 30000,2,107,0.898
"Cc1c(-c2cncc(C(=O)O)c2)nc(CN2CCC(c3cccc4c3O[C@@](C)(c3ccc(Cl)cc3F)O4)CC2)n1C[C@@H]1CCO1 [Compound C-12, 5-(2-((4-((S)-2-(4-chloro-2-fluorophenyl)-2-methylbenzo[d][1,3]dioxol-4-yl)piperidin-1-yl)methyl)-5-methyl-1-(((S)-oxetan-2-yl)methyl)-1H-imidazol-4-yl)nicotinic acid]",> 30000,10,113,0.6
"Cc1nc(CN2CCC(c3cccc4c3O[C@@](C)(c3ccc(Cl)cc3F)O4)CC2)n(C[C@@H]2CCO2)c1CCC(=O)O [Compound C-14, 3-(2-((4-((S)-2-(4-chloro-2-fluorophenyl)-2-methylbenzo[d][1,3]dioxol-4-yl)piperidin-1-yl)methyl)-4-methyl-1-(((S)-oxetan-2-yl)methyl)-1H-imidazol-5-yl)propanoic acid]",3370,28,107,0.254
"Cc1nc(CN2CCC(c3cccc4c3O[C@@](C)(c3ccc(Cl)cc3F)O4)CC2)n(C[C@@H]2CCO2)c1CC(F)C(=O)O (stereo partly drawn) [Compound C-15, 3-(2-((4-((S)-2-(4-chloro-2-fluorophenyl)-2-methylbenzo[d][1,3]dioxol-4-yl)piperidin-1-yl)methyl)-4-methyl-1-(((S)-oxetan-2-yl)methyl)-1H-imidazol-5-yl)-2-fluoropropanoic acid]",> 30000,41,109,0.253
"Cc1nc(CN2CCC(c3cccc4c3O[C@@](C)(c3ccc(Cl)cc3F)O4)CC2)n(C[C@@H]2CCO2)c1C(=O)NCC(=O)O [Compound C-16, (2-((4-((S)-2-(4-chloro-2-fluorophenyl)-2-methylbenzo[d][1,3]dioxol-4-yl)piperidin-1-yl)methyl)-4-methyl-1-(((S)-oxetan-2-yl)methyl)-1H-imidazole-5-carbonyl)glycine]",> 30000,8,105,8.49
"C[C@]1(c2ccc(Cl)cc2F)Oc2cccc(C3CCN(Cc4nc(F)c(/C=C/C(=O)O)n4C[C@@H]4CCO4)CC3)c2O1 [Compound C-18, (E)-3-(2-((4-((S)-2-(4-chloro-2-fluorophenyl)-2-methylbenzo[d][1,3]dioxol-4-yl)piperidin-1-yl)methyl)-4-fluoro-1-(((S)-oxetan-2-yl)methyl)-1H-imidazol-5-yl)acrylic acid]",197,90,116,0.0253
"Cc1nc(CN2CCC(c3cccc4c3O[C@@](C)(c3ccc(Cl)cc3F)O4)CC2)n(C[C@@H]2CCO2)c1/C=C(/F)C(=O)O [Compound C-19a, (E)-3-(2-((4-((S)-2-(4-chloro-2-fluorophenyl)-2-methylbenzo[d][1,3]dioxol-4-yl)piperidin-1-yl)methyl)-4-methyl-1-(((S)-oxetan-2-yl)methyl)-1H-imidazol-5-yl)-2-fluoroacrylic acid]",86,27,110,0.0137
"Cc1nc(CN2CCC(c3cccc4c3O[C@@](C)(c3ccc(Cl)cc3F)O4)CC2)n(C[C@@H]2CCO2)c1/C=C(\F)C(=O)O [Compound C-19b, (Z)-3-(2-((4-((S)-2-(4-chloro-2-fluorophenyl)-2-methylbenzo[d][1,3]dioxol-4-yl)piperidin-1-yl)methyl)-4-methyl-1-(((S)-oxetan-2-yl)methyl)-1H-imidazol-5-yl)-2-fluoroacrylic acid]",> 30000,27,111,0.98
